From ChEMBL document CHEMBL5390317, “Novel Indane-Containing NBTIs with Potent Anti-Gram-Negative Activity and Minimal hERG Inhibition” (ACS Med Chem Lett, 2023)
Values after ≈ are worked out from the molar mass of the structure shown. Active and inactive are the calls of the source. The calls are words filed in the database; no cut-off is given here.

Key:
[1] = Aqueous solubility of the compound at pH 6.5 at > 0.5 mg/ml; assay type: physicochemical; details: buffer
Escherichia coli [2] = assay: Antibacterial activity against Escherichia coli ATCC 25922 assessed as inhibition in bacterial growth incubated for 20 to 24 hrs by CLSI based broth microdilution method; assay type: functional; details: time 20-24 hrs
Acinetobacter baumannii [3] = assay: Antibacterial activity against Acinetobacter baumannii ATCC 19606 assessed as inhibition in bacterial growth incubated for 20 to 24 hrs by CLSI based broth microdilution method; assay type: functional; details: time 20-24 hrs
Klebsiella pneumoniae [4] = assay: Antibacterial activity against Klebsiella pneumoniae ATCC BAA-1705 assessed as inhibition in bacterial growth incubated for 20 to 24 hrs by CLSI based broth microdilution method; assay type: functional; details: time 20-24 hrs
Pseudomonas aeruginosa [5] = assay: Antibacterial activity against Pseudomonas aeruginosa ATCC 27853 assessed as inhibition in bacterial growth incubated for 20 to 24 hrs by CLSI based broth microdilution method; assay type: functional; details: time 20-24 hrs
DNA gyrase = DNA gyrase (Escherichia coli, UniProt P0AES4+P0AES6); assay: Inhibition of Escherichia coli DNA gyrase incubated for 80 mins by Transcreener ADP2 FI assay; assay type: protein-complex assay
hERG (KCNH2) [6] = biological target: T1, hERG (KCNH2) (Homo sapiens, UniProt Q12809); assay: Inhibition of hERG potassium channel expressed in CHO cells at 10 uM by electrophysiological patch clamp assay relative to control; assay type: toxicity, cell-based; details: CHO cells expressing hERG
T1 sequence (Q12809 whole entry): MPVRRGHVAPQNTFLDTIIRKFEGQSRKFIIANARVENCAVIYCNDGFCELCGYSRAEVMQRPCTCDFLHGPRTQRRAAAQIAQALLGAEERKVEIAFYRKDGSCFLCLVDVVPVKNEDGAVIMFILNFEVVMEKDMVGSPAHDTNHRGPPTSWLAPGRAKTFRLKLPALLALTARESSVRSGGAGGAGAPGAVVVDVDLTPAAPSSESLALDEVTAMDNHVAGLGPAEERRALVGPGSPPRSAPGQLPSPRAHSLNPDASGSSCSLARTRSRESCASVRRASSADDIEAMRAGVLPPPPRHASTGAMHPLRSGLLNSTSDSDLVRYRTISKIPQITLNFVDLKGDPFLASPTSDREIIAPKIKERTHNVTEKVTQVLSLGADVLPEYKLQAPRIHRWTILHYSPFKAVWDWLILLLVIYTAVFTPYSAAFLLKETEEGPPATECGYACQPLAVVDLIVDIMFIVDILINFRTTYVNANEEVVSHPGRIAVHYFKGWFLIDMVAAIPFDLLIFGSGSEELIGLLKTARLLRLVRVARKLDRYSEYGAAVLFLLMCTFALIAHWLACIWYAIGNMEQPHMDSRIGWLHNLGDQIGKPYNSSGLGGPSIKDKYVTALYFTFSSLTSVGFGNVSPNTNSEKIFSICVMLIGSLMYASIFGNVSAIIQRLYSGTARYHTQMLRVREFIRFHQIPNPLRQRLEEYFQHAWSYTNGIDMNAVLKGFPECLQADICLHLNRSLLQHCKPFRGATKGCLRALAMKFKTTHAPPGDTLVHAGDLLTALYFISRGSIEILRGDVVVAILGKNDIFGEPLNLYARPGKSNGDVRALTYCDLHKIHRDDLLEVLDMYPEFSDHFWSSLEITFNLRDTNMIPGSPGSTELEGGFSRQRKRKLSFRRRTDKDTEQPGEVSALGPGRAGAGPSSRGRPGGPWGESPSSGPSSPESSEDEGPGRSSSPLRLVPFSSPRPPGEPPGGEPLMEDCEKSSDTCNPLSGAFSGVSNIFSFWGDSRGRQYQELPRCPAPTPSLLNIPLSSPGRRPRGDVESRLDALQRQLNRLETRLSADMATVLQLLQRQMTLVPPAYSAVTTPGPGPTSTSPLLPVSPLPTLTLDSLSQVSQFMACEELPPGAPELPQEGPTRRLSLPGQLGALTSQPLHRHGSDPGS

Escherichia coli [7] = assay: Antibacterial activity against Escherichia coli K-12 BW25113 assessed as inhibition in bacterial growth incubated for 20 to 24 hrs by CLSI based broth microdilution method; assay type: functional; details: Escherichia coli, K-12 BW25113, time 20-24 hrs; read-out: MIC
Escherichia coli [8] = assay: Antibacterial activity against Escherichia coli K-12 BW25113 deltaTolC assessed as inhibition in bacterial growth incubated for 20 to 24 hrs by CLSI based broth microdilution method; assay type: functional; details: time 20-24 hrs
Escherichia coli [9] = assay: Antibacterial activity against Escherichia coli ATCC 35218 assessed as inhibition in bacterial growth incubated for 20 to 24 hrs by CLSI based broth microdilution method; assay type: functional; details: Escherichia coli, ATCC 35218, time 20-24 hrs; read-out: MIC
Escherichia coli [10] = assay: Antibacterial activity against Escherichia coli ATCC BAA-2340 assessed as inhibition in bacterial growth incubated for 20 to 24 hrs by CLSI based broth microdilution method; assay type: functional; details: Escherichia coli, ATCC BAA-2340, time 20-24 hrs; read-out: MIC
Acinetobacter baumannii [11] = assay: Antibacterial activity against Acinetobacter baumannii ATCC 51432 assessed as inhibition in bacterial growth incubated for 20 to 24 hrs by CLSI based broth microdilution method; assay type: functional; details: Acinetobacter baumannii, ATCC 51432, time 20-24 hrs; read-out: MIC
Acinetobacter baumannii [12] = assay: Antibacterial activity against Acinetobacter baumannii ATCC BAA-747 assessed as inhibition in bacterial growth incubated for 20 to 24 hrs by CLSI based broth microdilution method; assay type: functional; details: Acinetobacter baumannii, ATCC BAA-747, time 20-24 hrs; read-out: MIC
Klebsiella pneumoniae [13] = assay: Antibacterial activity against Klebsiella pneumoniae ATCC 10031 assessed as inhibition in bacterial growth incubated for 20 to 24 hrs by CLSI based broth microdilution method; assay type: functional; details: time 20-24 hrs
Klebsiella pneumoniae [14] = assay: Antibacterial activity against Klebsiella pneumoniae ATCC 700603 assessed as inhibition in bacterial growth incubated for 20 to 24 hrs by CLSI based broth microdilution method; assay type: functional; details: Klebsiella pneumoniae, ATCC 700603, time 20-24 hrs; read-out: MIC
Klebsiella pneumoniae [15] = assay: Antibacterial activity against Klebsiella pneumoniae ATCC BAA-2146 assessed as inhibition in bacterial growth incubated for 20 to 24 hrs by CLSI based broth microdilution method; assay type: functional; details: Klebsiella pneumoniae, ATCC BAA-2146, time 20-24 hrs; read-out: MIC
Pseudomonas aeruginosa [16] = assay: Antibacterial activity against Pseudomonas aeruginosa NCTC 13437 assessed as inhibition in bacterial growth incubated for 20 to 24 hrs by CLSI based broth microdilution method; assay type: functional; details: Pseudomonas aeruginosa, NCTC 13437, time 20-24 hrs; read-out: MIC
Pseudomonas aeruginosa [17] = assay: Antibacterial activity against Pseudomonas aeruginosa NCTC 11451 assessed as inhibition in bacterial growth incubated for 20 to 24 hrs by CLSI based broth microdilution method; assay type: functional; details: Pseudomonas aeruginosa, NCTC 11451, time 20-24 hrs; read-out: MIC
Staphylococcus aureus [18] = assay: Antibacterial activity against Staphylococcus aureus ATCC BAA-1556 assessed as inhibition in bacterial growth incubated for 20 to 24 hrs by CLSI based broth microdilution method; assay type: functional; details: Staphylococcus aureus, ATCC BAA-1556, time 20-24 hrs; read-out: MIC
Staphylococcus aureus [19] = assay: Antibacterial activity against Staphylococcus aureus ATCC 29213 assessed as inhibition in bacterial growth incubated for 20 to 24 hrs by CLSI based broth microdilution method; assay type: functional; details: Staphylococcus aureus, ATCC 29213; time 20-24 hrs; read-out: MIC
[20] = Inhibition of Escherichia coli topoisomerase 4 incubated for 120 mins by Transcreener ADP2 FI assay
hERG (KCNH2) [21] = biological target: T1, hERG (KCNH2); assay: Inhibition of hERG potassium channel expressed in CHO cells at 1 uM by electrophysiological patch clamp assay relative to control; assay type: toxicity, cell-based; details: CHO cells expressing hERG
[22] = biological target: Voltage-gated inwardly rectifying potassium channel KCNH2 (Homo sapiens, UniProt Q12809); assay: (§1) Inhibition of hERG potassium channel expressed in CHO cells by electrophysiological patch clamp assay; assay type: toxicity, cell-based
Chain of Voltage-gated inwardly rectifying potassium channel KCNH2 (Q12809 whole entry): as above

hERG (KCNH2) [23] = biological target: T1, hERG (KCNH2); assay: as §1; assay type: toxicity, cell-based; details: human, CHO cells expressing hERG
[24] = Stability in mouse microsome; assay type: ADME; details: microsomes
[25] = Stability in rat microsome; assay type: ADME; details: microsomes
[26] = Stability in human microsome; assay type: ADME; details: microsomes
[27] = Stability in human hepatocyte; assay type: ADME, cell-based; details: hepatocytes
CYP3A4 = CYP3A4 (Homo sapiens, UniProt P08684); assay: Inhibition of CYP3A4 (unknown origin) at 10 uM relative to control; assay type: ADME
Chain of CYP3A4 (P08684 whole entry): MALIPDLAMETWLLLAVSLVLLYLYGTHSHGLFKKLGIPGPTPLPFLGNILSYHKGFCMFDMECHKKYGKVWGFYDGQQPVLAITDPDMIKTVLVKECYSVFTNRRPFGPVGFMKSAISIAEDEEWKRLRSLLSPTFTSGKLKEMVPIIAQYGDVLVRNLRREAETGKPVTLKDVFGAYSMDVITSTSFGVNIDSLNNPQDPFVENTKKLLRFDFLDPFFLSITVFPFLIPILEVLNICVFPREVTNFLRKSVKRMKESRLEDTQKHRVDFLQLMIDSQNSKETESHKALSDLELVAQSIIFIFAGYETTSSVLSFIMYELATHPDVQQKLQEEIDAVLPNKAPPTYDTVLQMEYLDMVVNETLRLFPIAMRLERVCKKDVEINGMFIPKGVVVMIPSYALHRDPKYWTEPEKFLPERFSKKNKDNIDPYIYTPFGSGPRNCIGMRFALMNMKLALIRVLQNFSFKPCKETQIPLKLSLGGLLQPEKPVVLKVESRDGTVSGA

CYP2D6 = CYP2D6 (Homo sapiens, UniProt P10635); assay: Inhibition of CYP2D6 (unknown origin) at 10 uM relative to control; assay type: ADME
Chain of CYP2D6 (P10635 whole entry): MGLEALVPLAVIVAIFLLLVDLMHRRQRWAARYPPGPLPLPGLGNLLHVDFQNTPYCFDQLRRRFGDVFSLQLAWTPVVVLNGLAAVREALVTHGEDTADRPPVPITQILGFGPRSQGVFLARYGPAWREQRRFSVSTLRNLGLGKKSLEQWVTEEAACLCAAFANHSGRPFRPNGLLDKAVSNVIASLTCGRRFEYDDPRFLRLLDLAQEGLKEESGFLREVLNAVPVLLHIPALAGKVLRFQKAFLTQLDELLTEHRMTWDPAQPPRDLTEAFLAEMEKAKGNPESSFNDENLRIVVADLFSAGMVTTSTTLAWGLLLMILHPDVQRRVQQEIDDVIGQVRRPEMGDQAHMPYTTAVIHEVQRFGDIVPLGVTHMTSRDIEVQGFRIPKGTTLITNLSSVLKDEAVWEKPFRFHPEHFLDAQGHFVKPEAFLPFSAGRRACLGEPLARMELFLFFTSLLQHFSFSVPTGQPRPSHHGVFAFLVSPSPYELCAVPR

CYP2C9 = CYP2C9 (Homo sapiens, UniProt P11712); assay: Inhibition of CYP2C9 (unknown origin) at 10 uM relative to control; assay type: ADME
Chain of CYP2C9 (P11712 whole entry): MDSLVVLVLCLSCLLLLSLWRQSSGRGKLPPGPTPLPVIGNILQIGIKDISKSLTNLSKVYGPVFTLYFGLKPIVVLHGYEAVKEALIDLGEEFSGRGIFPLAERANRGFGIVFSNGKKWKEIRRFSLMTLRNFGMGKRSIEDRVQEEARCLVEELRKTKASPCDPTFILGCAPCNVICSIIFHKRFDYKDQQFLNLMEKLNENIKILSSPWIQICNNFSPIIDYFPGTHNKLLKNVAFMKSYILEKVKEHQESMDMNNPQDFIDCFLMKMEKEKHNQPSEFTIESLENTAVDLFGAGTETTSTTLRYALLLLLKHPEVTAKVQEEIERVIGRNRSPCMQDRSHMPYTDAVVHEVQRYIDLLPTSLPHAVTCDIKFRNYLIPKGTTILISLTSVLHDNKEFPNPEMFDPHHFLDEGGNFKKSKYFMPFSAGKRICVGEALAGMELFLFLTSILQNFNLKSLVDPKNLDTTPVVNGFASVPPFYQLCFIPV

[28] = Cytotoxicity against HEK293 cells; assay type: toxicity, cell-based; details: human
[29] = Protein binding in human plasma assessed as free fraction; assay type: ADME, cell-free
[30] = Protein binding in mouse plasma assessed as free fraction; assay type: ADME, cell-free
[31] = Protein binding in rat plasma assessed as free fraction; assay type: ADME, cell-free
Pseudomonas aeruginosa [32] = assay: Antibacterial activity against pseudomonas aeruginosa ATCC 27853 infected in neutropenic CD-1 lung infection mouse model assessed as reduction in colony forming unit in lung at 15 mg/kg, sc TID administered at 8 hrs interval for 24 hrs; assay type: functional, organism-based
Pseudomonas aeruginosa [33] = assay: Antibacterial activity against pseudomonas aeruginosa ATCC 27853 infected in neutropenic CD-1 lung infection mouse model assessed as reduction in colony forming unit in lung at 45 mg/kg, sc TID administered for 24 hrs; assay type: functional, organism-based
Pseudomonas aeruginosa [34] = assay: Bactericidal effect against pseudomonas aeruginosa ATCC 27853 infected in neutropenic CD-1 lung infection mouse model assessed as reduction in colony forming unit in lung at 45 mg/kg, sc TID administered at […] interval for 24 hrs; assay type: functional
[35] = Drug excretion in Wistar-Han rat urine assessed as parent compound remaining at 3 mg/kg, iv administered upto 48 hrs by LC-MS/MS method; assay type: ADME, organism-based; details: read-out: Drug excretion
[36] = Stability in mouse hepatocyte; assay type: ADME, cell-based; details: hepatocytes
[37] = Stability in rat hepatocyte; assay type: ADME, cell-based; details: hepatocytes
Pseudomonas aeruginosa [38] = assay: Bacteriostatic effect against pseudomonas aeruginosa ATCC 27853 infected in neutropenic CD-1 lung infection mouse model assessed as reduction in colony forming unit at 15 mg/kg, sc TID administered at 8 hrs interval for 24 hrs; assay type: functional, organism-based
[39] = Lipophilicity, log D of compound at pH 7.4; assay type: physicochemical; details: buffer

NC1(COc2cc(F)c3c(c2)CC(CNCCC2CN(c4cnc5c(n4)NC(=O)CO5)C(=O)O2)C3)CC1 (configuration not stated)
solubility [1]: Soluble
MIC (Escherichia coli [2]): 0.125 µg/mL (≈ 0.244 µM)
MIC (Acinetobacter baumannii [3]): 2 µg/mL (≈ 3.9 µM)
MIC (Klebsiella pneumoniae [4]): 1 µg/mL (≈ 1.95 µM)
MIC (Pseudomonas aeruginosa [5]): 0.25 µg/mL (≈ 0.488 µM)
IC50 (DNA gyrase): 60 nM
inhibition at 10 µM (hERG (KCNH2) [6]): < 1%
MIC (Escherichia coli [7]): 0.06 µg/mL (≈ 0.117 µM)
MIC (Escherichia coli [8]): ≤ 0.06 µg/mL
MIC (Escherichia coli [9]): 0.125 µg/mL (≈ 0.244 µM)
MIC (Escherichia coli [10]): 0.25 µg/mL (≈ 0.488 µM)
MIC (Acinetobacter baumannii [11]): 2 µg/mL (≈ 3.9 µM)
MIC (Acinetobacter baumannii [12]): 0.5 µg/mL (≈ 0.976 µM)
MIC (Klebsiella pneumoniae [13]): ≤ 0.06 µg/mL
MIC (Klebsiella pneumoniae [14]): 1 µg/mL (≈ 1.95 µM)
MIC (Klebsiella pneumoniae [15]): 2 µg/mL (≈ 3.9 µM)
MIC (Pseudomonas aeruginosa [16]): 1 µg/mL (≈ 1.95 µM)
MIC (Pseudomonas aeruginosa [17]): 1 µg/mL (≈ 1.95 µM)
MIC (Staphylococcus aureus [18]): 0.5 µg/mL (≈ 0.976 µM)
MIC (Staphylococcus aureus [19]): 0.125 µg/mL (≈ 0.244 µM)
IC50 [20]: 30 nM
inhibition at 1 µM (hERG (KCNH2) [21]): < 1%
IC50 [22]: > 20000 nM
IC20 (hERG (KCNH2) [23]): > 10000 nM
Stability [24]: Stable
Stability [25]: Stable
Stability [26]: Stable
Stability [27]: Stable
inhibition at 10 µM (CYP3A4): < 25%
inhibition at 10 µM (CYP2D6): < 25%
inhibition at 10 µM (CYP2C9): < 25%
CC50 [28]: > 100000 nM
fraction unbound [29]: 0.4
fraction unbound [30]: 0.4
fraction unbound [31]: 0.32
Activity (Pseudomonas aeruginosa [32]): Active
Activity (Pseudomonas aeruginosa [33]): Active
Activity (Pseudomonas aeruginosa [34]): 2.6 log10CFU
dose excreted at 48 h [35]: 5%
Stability [36]: Stable
Stability [37]: Stable
Activity (Pseudomonas aeruginosa [38]): inactive

CC(N)COc1cc(F)c2c(c1)CC(CCOCC1CN(c3cnc4c(n3)NC(=O)CO4)C(=O)O1)C2 (configuration not stated)
MIC (Escherichia coli [2]): 8 µg/mL (≈ 16 µM)
MIC (Acinetobacter baumannii [3]): 8 µg/mL (≈ 16 µM)
MIC (Klebsiella pneumoniae [4]): 64 µg/mL (≈ 128 µM)
MIC (Pseudomonas aeruginosa [5]): 8 µg/mL (≈ 16 µM)
IC50 (DNA gyrase): 170 nM
MIC (Escherichia coli [7]): 4 µg/mL (≈ 7.98 µM)
MIC (Escherichia coli [8]): ≤ 0.06 µg/mL
MIC (Escherichia coli [9]): 8 µg/mL (≈ 16 µM)
MIC (Escherichia coli [10]): 16 µg/mL (≈ 31.9 µM)
MIC (Acinetobacter baumannii [11]): 8 µg/mL (≈ 16 µM)
MIC (Acinetobacter baumannii [12]): 4 µg/mL (≈ 7.98 µM)
MIC (Klebsiella pneumoniae [13]): 0.125 µg/mL (≈ 0.249 µM)
MIC (Klebsiella pneumoniae [14]): 64 µg/mL (≈ 128 µM)
MIC (Klebsiella pneumoniae [15]): 64 µg/mL (≈ 128 µM)
MIC (Pseudomonas aeruginosa [16]): 32 µg/mL (≈ 63.8 µM)
MIC (Pseudomonas aeruginosa [17]): 64 µg/mL (≈ 128 µM)
MIC (Staphylococcus aureus [18]): 1 µg/mL (≈ 1.99 µM)
MIC (Staphylococcus aureus [19]): 0.25 µg/mL (≈ 0.498 µM)
IC50 [20]: 27 nM
logD [39]: 0.22
